Laboratory results taken from US20230355622A1, “METHODS OF CHEMOVACCINATION AGAINST PLASMODIUM INFECTIONS” (Merck Sharp & Dohme LLC, priority 2020, published 2023).
pEC50: −log10 of the molar value.

System: parasite
Assay: Parasite LDH growth assay (Parasite Assay), antiparasite potency
Type: cell-based
Settings: 72 h, parasite LDH growth assay, ring stage parasites, 72 hours incubation at 37° C.; read-out: EC50
Method in brief: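 Ring-stage parasites at 0.7% parasitemia and 2% haematocrit, in RPMI-Hepes/bicarbonate with 5% heat-inactivated human serum and 0.5% albumax, were added to compound-containing medium. Cultures grew 72 h at 37 °C in gassed humidified boxes. Plates were then frozen overnight at −80 °C, thawed 4 h, and growth was measured by LDH assay.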

Point of comparison: `CCC1(CC)CC(=O)N([C@H]2c3cc(C(=O)N[C@@H]4c5ccccc5C(F)(F)[C@H]4O)ccc3O[C@@]2(C)COC)C(=N)N1` [Example 290, (2R,3S)-3-(4,4-diethyl-2-imino-6-oxo-hexahydropyrimidin-1-yl)-N-[(1R,2S)-3,3-difluoro-2-hydroxy-indan-1-yl]-2-(methoxymethyl)-2-methyl-3H-benzofuran-5-carboxamide], pEC50 9.52. Against it:
- CCC1(CC)CC(=O)N([C@H]2c3cc(C(=O)N[C@@H]4c5ccccc5OC(C)(C)[C@H]4O)ccc3OC2(C)C)C(=N)N1 [Example 245, (3S)-3-(4,4-diethyl-2-imino-6-oxo-hexahydropyrimidin-1-yl)-N-[(3S,4R)-3-hydroxy-2,2-dimethyl-chroman-4-yl]-2,2-dimethyl-3H-benzofuran-5-carboxamide] — 0.42 log units lower, 9.10
- CCC1(CC)CC(=O)N([C@@H]2C[C@@H](C)Oc3ccc(C(=O)N[C@@H]4c5ccccc5OC(C)(C)[C@H]4O)cc32)C(=N)N1 [Example 246, (2R,4R)-4-(4,4-diethyl-2-imino-6-oxo-hexahydropyrimidin-1-yl)-N-[(3S,4R)-3-hydroxy-2,2-dimethyl-chroman-4-yl]-2-methyl-chromane-6-carboxamide] — 0.82 log units lower, 8.70
- CCC1(CC)CC(=O)N([C@H]2c3cc(C(=O)N[C@@H]4c5ccccc5OC[C@@]4(C)O)ccc3CC[C@@H]2OC)C(=N)N1 [Example 247, (3S,4S)-4-(4,4-diethyl-2-imino-6-oxo-hexahydropyrimidin-1-yl)-N-[(3S,4R)-3-hydroxy-3-methyl-chroman-4-yl]-3-methoxy-tetralin-6-carboxamide] — 1.17 log units lower, 8.35
- CCC1(CC)CC(=O)N([C@@H]2CCCOc3ccc(C(=O)N[C@@H]4c5ccccc5OC(C)(C)[C@H]4O)cc32)C(=N)N1 [Example 248, (5R)-5-(4,4-diethyl-2-imino-6-oxo-hexahydropyrimidin-1-yl)-N-[(3S,4R)-3-hydroxy-2,2-dimethyl-chroman-4-yl]-2,3,4,5-tetrahydro-1-benzoxepine-7-carboxamide] — 0.42 log units lower, 9.10
- CCC1(CC)CC(=O)N([C@H]2c3cc(C(=O)N[C@@H]4c5ccccc5OC(C)(C)[C@H]4O)ccc3CC[C@@H]2OC)C(=N)N1 [Example 276, (3S,4S)-4-(4,4-diethyl-2-imino-6-oxo-hexahydropyrimidin-1-yl)-N-[(3S,4R)-3-hydroxy-2,2-dimethyl-chroman-4-yl]-3-methoxy-tetralin-6-carboxamide] — 0.30 log units lower, 9.22
- CC[C@]1(C)CC(=O)N([C@H]2c3cc(C(=O)N[C@@H]4c5ccccc5OC(C)(C)[C@H]4O)ccc3OC[C@@H]2COC)C(=N)N1 [Example 277, (3S,4R)-4-[(4R)-4-ethyl-2-imino-4-methyl-6-oxo-hexahydropyrimidin-1-yl]-N-[(3S,4R)-3-hydroxy-2,2-dimethyl-chroman-4-yl]-3-(methoxymethyl)chromane-6-carboxamide] — within 0.2 log units, 9.40
- CC[C@]1(C)CC(=O)N([C@H]2c3cc(C(=O)N[C@@H]4c5ccccc5OC(C)(C)[C@H]4O)ccc3OCC2(C)OC)C(=N)N1 (stereo partly drawn) [Example 284, 4-[(4R)-4-ethyl-2-imino-4-methyl-6-oxo-hexahydropyrimidin-1-yl]-N-[(3S,4R)-3-hydroxy-2,2-dimethyl-chroman-4-yl]-3-methoxy-3-methyl-chromane-6-carboxamide] — 1.45 log units lower, 8.07

Same assay, conditions: parasite LDH growth assay, ring stage parasites, 72 hours incubation at 37° C.; read-out: EC50

Point of comparison: `CCC1(CC)CC(=O)N([C@@H]2CCS(=O)(=O)c3ccc(C(=O)N[C@H]4CC(C)(C)Oc5ccccc54)cc32)C(=N)N1` [Example 289, (4R)-4-(4,4-diethyl-2-imino-6-oxo-hexahydropyrimidin-1-yl)-N-[(4S)-2,2-dimethylchroman-4-yl]-1,1-dioxo-3,4-dihydro-2H-thiochromene-6-carboxamide], pEC50 9.22. Against it:
- CCC1(CC)CC(=O)N([C@@H]2CCOc3ccc(C(=O)NC4c5ccccc5CC4(O)C(F)(F)F)cc32)C(=N)N1 (stereo partly drawn) [Example 272C, (4R)-4-(4,4-diethyl-2-imino-6-oxo-hexahydropyrimidin-1-yl)-N-[2-hydroxy-2-(trifluoromethyl)indan-1-yl]chromane-6-carboxamide] — within 0.2 log units, 9.05
